Measurements reported in patent US11298348B2, “Combination treatment of sarcoglycanopathies” (INSERM (INSTITUT NATIONAL DE LA SANTE ET DE LA RECHERCHE …, priority 2018, dated 2022).

Assays:
R77C-α-SG [1] = target: T1, R77C-α-SG (Homo sapiens, UniProt Q16586, R77C); assay: Western blot and densitometry of α-SG content in βγδ-cells transiently expressing R77C-α-SG; assay type: cell-based; conditions: single corrector, C17 10 μM or C4 5 μM, 24 hours
T1 construct: The full-length cDNA encoding human α-sarcoglycan cloned in the pcDNA3 mammalian expression vector; expressed in transfected cells; host or cells: βγδ-cells (HER911 cells stably expressing β-, γ- and δ-sarcoglycan)
T1 sequence (Q16586 24-387 R77C): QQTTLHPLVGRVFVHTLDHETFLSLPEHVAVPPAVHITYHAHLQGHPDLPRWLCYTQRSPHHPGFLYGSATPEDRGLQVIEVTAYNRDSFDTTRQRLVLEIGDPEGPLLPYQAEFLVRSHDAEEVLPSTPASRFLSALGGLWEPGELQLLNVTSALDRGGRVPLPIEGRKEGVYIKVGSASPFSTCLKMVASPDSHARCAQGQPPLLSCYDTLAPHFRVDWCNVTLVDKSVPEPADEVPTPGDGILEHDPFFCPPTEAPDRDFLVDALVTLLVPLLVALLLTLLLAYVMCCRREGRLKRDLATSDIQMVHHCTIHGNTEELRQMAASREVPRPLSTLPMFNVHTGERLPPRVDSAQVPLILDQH
Experimental: (§1) For transient expression, HEK 293 cells were seeded at 50,000 cells/cm2 and transfected the day after with Transit293 (MirusBio) according to manufacturer's instruction. Twenty-four hours after transfection, medium was replaced with DMEM supplemented with 2% FBS containing the indicated concentration of correctors (dissolved in DMSO) or with DMSO alone (final DMSO concentration 0.1%). HER911 or βγδ-cells cells were seeded at 50,000 cells/cm2 and transfected the day after with 9 μl of Fugene HD Transfection Reagent (E2312 from Promega) and 3 μg of plasmid coding for wild type or mutated α-SG. MG132 was added 8 hours before cell lysis, CFTR correctors were added 24 hours before cell lysis or IF assay (transfected HEK293, V247M cells, HER911 and βγδ-cells) and 24-96 hours before myotubes lysis, treatment with CHX or IF assay.
After treatments, cells were washed twice with ice cold PBS and lysed with 5% sodium deoxycholate supplemented with complete protease inhibitor (Sigma-Aldrich).
Protein lysates were quantified by the bicinchoninic-acid protein assay kit (Thermo Scientific), according to manufacturer's instructions. […] After 1-hour incubation with donkey anti-rabbit IRDye680 and anti-mouse IRDye800 antibodies (EuroBio) at room temperature, proteins were detected by fluorescence in an Odissey imaging system (Li-Cor) following the manufacturer's instructions. […]

R77C-α-SG [2] = target: T1, R77C-α-SG; assay: Immunofluorescence of membrane α-SG in intact βγδ-cells expressing R77C-α-SG (confocal, ImageXpress); assay type: cell-based; conditions: single corrector, 24 hours
Experimental: as §1
Immunofluorescence-confocal analyses were performed either in intact cells (not permeabilized) or in permeabilized cells. For the former condition, cells, grown on polylysine-treated glasses, at the end of treatments were incubated for 30 minutes at 4° C., then gently washed twice with ice-cold PBS and incubated with primary antibodies for 5 hours at 4° C. […]
Quantification of the mean fluorescence intensity of membrane staining of […] transfected with R77C-α-SG was performed by using ImageXpress microscope system (Molecular Devices). […]

R77C-α-SG protein content (R77C-α-SG [1]) | localization of rescued R77C-α-SG at the plasma membrane (confocal IF, not-permeabilized cells) (R77C-α-SG [2]) | SMILES
three to four-fold increase | intense cell-surface staining | COc1ccc(Cl)cc1Nc1nc(-c2sc(NC(=O)c3ccccc3)nc2C)cs1 [C4, N-[2-(5-Chloro-2-methoxy-phenylamino)-4′-methyl-[4,5′]bithiazolyl-2′-yl]-benzamide]
three to four-fold increase | intense cell-surface staining | COc1ccc(Cl)cc1Nc1nc(-c2sc(NC(=O)C(C)(C)C)nc2C)cs1 [C17, N-(2-(5-chloro-2-methoxyphenylamino)-4′-methyl-4,5′-bithiazol-2′-yl)pivalamide]
